Test results as given in patent US9193983B2, “Assays for mutagenesis detection” (The Regents of the University of California, priority 2007, dated 2015).
Like-named read-outs stand apart in the source and are kept apart here. Numbered stars: 1 amine (or outer) side, 2 acyl side, 3 side chain; on linkers, the order of the positions; unused ones are H or OH. Bridge positions count the residues as written; N and C are the ends. Square brackets hold non-standard residues; d marks the D form. Peptide text beside a SMILES is read from it. I, II: the chains in the order shown. Actinocin(9to1) = Cc1c2oc3c(C)ccc(C(=O)[*:1])c3nc-2c(C(=O)[*:2])c(N)c1=O; NMeV = CN[C@H](C(=O)O)C(C)C; Sar = CNCC(=O)O

Columns and labels:
[1] = in vitro; conditions: Saccharomyces cerevisiae; for viability: Cytotoxicity (% survival)
Description: (§1) The RS112 yeast DEL assay tester strain of Saccharomyces cerevisiae contains a plasmid with an internal fragment of the HIS3 gene integrated at the genomic HIS3 locus, yielding an integrative disruption of the HIS3 gene. This disruption results in two copies of the HIS3 gene, each copy having one terminal deletion. Recombination between the two his3 deletion alleles results in reversion to HIS3^+ and growth in the absence of histidine. This recombination event leads to a 6 kb DNA deletion comprising the integrated plasmid leading to deletion (DEL) events. The assay utilizing DEL events involves overnight growth of a single colony of the RS112 strain and subsequent subculture with the presence or absence of the chemical being tested for 17 hours at 30° C. under constant shaking. Yeast are then plated onto SC medium to determine the number of survivors (individual colonies are counted) and onto SC-HIS medium to score for DEL events. The traditional DEL assay is very powerful if one is testing a limited number of chemicals but becomes impractical for screening large numbers of chemicals and chemical libraries.
(§2) For 384-well plate format, 1 μl of yeast (˜100,000 cells) was pipetted into 8 microplate wells for each compound, four of which containing 70 μl SC media and four containing 70 μl SC-HIS media; each well was supplemented with 14 μl of MTS and 5 μl of compound. For 96-well plate format, the above was consistent except media, MTS, and compound volumes were 100 μl, 20 μl, and 7 μl, respectively. Control wells were treated with water in lieu of compound. The outermost columns of the 96-well plate and outer two columns of each 384-well plate were excluded from experimentation lest edge evaporative effects alter the data. Plates were incubated at 30° C. at normal atmosphere during which yeast were grown in the presence of the tested compound and 490 nm absorbance was measured 10-18 hr later using a Molecular Devices SpectraMax M5 microplate reader (Sunnyvale, Calif.).
(§3) Survival for a given compound treatment was quantified by averaging the absorbance across the four treated wells in SC media and dividing that by the average absorbance of control wells. DEL induction was quantified by dividing the absorbance of each SC-HIS well by the corresponding paired SC well. Thus for each compound done in quadruplicate, each plate contains a set of 4 different measurements of DEL induction. For each compound, ratio of the average DEL induction in treated versus control cultures was taken as the fold-increase in DEL events (HIS^+ growth). A Student's t-test was performed on the 4 measurements of DEL induction and the same measurements recorded from control wells to determine significance of the fold-increase. It should be noted that this value of fold-increase is analyzed statistically for significance and not absolute; thus two different chemicals may have the same fold-increase but varying levels of significance. In plots and tables, data from a single experiment performed in quadruplicate is presented; all experiments were repeated independently in at least 3 separate experiments in both 96 and 384-well plate formats.

[2] = system: S. cerevisiae strain RS112; assay: well-based DEL assay (MTS colorimetric, 96/384-well): genotoxicity and cytotoxicity; conditions: for DNA deletion potential (DEL events) of solvent alone: compared to control treated yeast; for DEL events (DNA deletions) induced by crosslinking agents: well-based DEL assay
Description: as §1, §2, §3

[3] = system: Saccharomyces cerevisiae; conditions: cited from earlier work
[4] = S. cerevisiae strain RS112 (diploid yeast cells)
[5] = concentrations as low as 1 μM (~0.3 μg/ml)

O=[N+]([O-])c1cc[n+]([O-])c2ccccc12 [4NQO, 4-nitroquinoline-1-oxide]
viability ([1]; 0.08 μg/ml final in well): 20.3%
viability ([1]; 0.2 μg/ml final in well): 11.7%
viability ([1]; 1 μg/ml final in well): 13.5%

CC(C)=O [Acetone, acetone]
DEL (fold increase) ([2]; 0.4% (solvent tested alone)): 0.96 fold
DEL significance ([2]; 0.4% (solvent tested alone)): ns (ns—not significant (p > 0.05))
DNA deletion potential (DEL events) of solvent alone [2]: neither solvents generated any differentiable response

Cc1c2oc3c(C)ccc(C(=O)N[C@@H]4C(=O)N[C@H](C(C)C)C(=O)N5CCC[C@H]5C(=O)N(C)CC(=O)N(C)[C@@H](C(C)C)C(=O)O[C@@H]4C)c3nc-2c(C(=O)N[C@@H]2C(=O)N[C@H](C(C)C)C(=O)N3CCC[C@H]3C(=O)N(C)CC(=O)N(C)[C@@H](C(C)C)C(=O)O[C@@H]2C)c(N)c1=O [ActD, actinomycin D] (I: T[dV]P[Sar][NMeV] / II: T[dV]P[Sar][NMeV]; ester I:1-I:C, II:1-II:C; linker I:N-II:N via Actinocin(9to1))
Cytotoxicity significance [2]: ** (key: * (p < 0.05); ** (p < 0.01); *** (p < 0.005); ns—not significant (p > 0.05))
DEL fold-increase [2]: significant DEL fold-increase
cytotoxicity [2]: slight cytotoxicity
Cytotoxicity (% survival) ([2]; 5 μM final in well): 112.0%
DEL (fold increase) ([2]; 5 μM final in well): 0.89 fold
DEL significance ([2]; 5 μM final in well): ns (ns—not significant (p > 0.05))
Cytotoxicity (% survival) ([2]; 10 μM final in well): 110.2%
DEL (fold increase) ([2]; 10 μM final in well): 0.96 fold
DEL significance ([2]; 10 μM final in well): ns (ns—not significant (p > 0.05))
Cytotoxicity (% survival) ([2]; 20 μM final in well): 86.3%
DEL (fold increase) ([2]; 20 μM final in well): 1.26 fold
DEL significance ([2]; 20 μM final in well): ** (** (p < 0.01))

c1ccccc1 [Benzene, benzene]
Cytotoxicity significance ([2]; 0.25 mg/ml final in well): ns (ns—not significant (p > 0.05))
DEL (fold increase) ([2]; 0.25 mg/ml final in well): 1.77 fold
DEL significance ([2]; 0.25 mg/ml final in well): *** (*** (p < 0.005))
Cytotoxicity significance ([2]; 0.40 mg/ml final in well): ** (** (p < 0.01))
DEL (fold increase) ([2]; 0.40 mg/ml final in well): 2.31 fold
DEL significance ([2]; 0.40 mg/ml final in well): *** (*** (p < 0.005))
DEL induction ([2]; 0.25 and 0.40 mg/ml): significant DEL induction
viability at 0.25 mg/ml [1]: 96%
viability at 0.4 mg/ml [1]: 83.7%

CC[C@@]1(O)C(=O)OCc2c1cc1n(c2=O)Cc2cc3ccccc3nc2-1 [Camptothecin, camptothecin]
Cytotoxicity significance ([2]; 5 μM final in well): *** (*** (p < 0.005))
DEL (fold increase) ([2]; 5 μM final in well): 1.28 fold
DEL significance ([2]; 5 μM final in well): ** (** (p < 0.01))
Cytotoxicity significance ([2]; 15 μM final in well): * (* (p < 0.05))
DEL (fold increase) ([2]; 15 μM final in well): 1.53 fold
DEL significance ([2]; 15 μM final in well): *** (*** (p < 0.005))
Cytotoxicity significance ([2]; 25 μM final in well): * (* (p < 0.05))
DEL (fold increase) ([2]; 25 μM final in well): 1.57 fold
DEL significance ([2]; 25 μM final in well): *** (*** (p < 0.005))
Cytotoxicity significance ([2]; 40 μM final in well): *** (*** (p < 0.005))
DEL (fold increase) ([2]; 40 μM final in well): 1.77 fold
DEL significance ([2]; 40 μM final in well): *** (*** (p < 0.005))
cytotoxicity ([2]; each concentration 5-40 μM): various degrees of cytotoxicity
genotoxicity (growth in −HIS media) ([2]; each concentration 5-40 μM (1.7-13.9 μg/ml)): significant genotoxicity
viability at 5 μM [1, 4]: 86.1%
viability at 15 μM [1, 4]: 93.1%
viability at 25 μM [1, 4]: 95.7%
viability at 40 μM [1, 4]: 85.6%

O=NN(CCCl)C(=O)NCCCl [Carmustine, carmustine]
cytotoxic effects [2]: more pronounced genotoxic and cytotoxic effects
DEL significance ([2]; 10 μM final in well): * (* (p < 0.05))
DEL significance ([2]; 30 μM final in well): *** (*** (p < 0.005))
DEL significance ([2]; 50 μM final in well): *** (*** (p < 0.005))
DEL events (DNA deletions) induced by crosslinking agents [2]: significant increase in DEL events
viability ([1]; 10 μM final in well): 91.8%
viability ([1]; 30 μM final in well): 29.5%
viability ([1]; 50 μM final in well): 10.7%

O=C(O)CCCc1ccc(N(CCCl)CCCl)cc1 [Chlorambucil, chlorambucil]
Cytotoxicity significance ([2]; 1 μM final in well): ** (** (p < 0.01))
DEL (fold increase) ([2]; 1 μM final in well): 1.18 fold
DEL significance ([2]; 1 μM final in well): * (* (p < 0.05))
Cytotoxicity significance ([2]; 10 μM final in well): *** (*** (p < 0.005))
DEL (fold increase) ([2]; 10 μM final in well): 2.37 fold
DEL significance ([2]; 10 μM final in well): *** (*** (p < 0.005))
Cytotoxicity significance ([2]; 30 μM final in well): *** (*** (p < 0.005))
DEL (fold increase) ([2]; 30 μM final in well): 3.58 fold
DEL significance ([2]; 30 μM final in well): *** (*** (p < 0.005))
cytotoxicity [2, 5]: significant genotoxicity and cytotoxicity
genotoxicity [2, 5]: significant genotoxicity and cytotoxicity
DEL events (DNA deletions) induced by crosslinking agents [2]: significant increase in DEL events
viability at 1 μM [1]: 82.4%
viability at 10 μM [1]: 35.7%
viability at 30 μM [1]: 20.5%

O=P1(N(CCCl)CCCl)NCCCO1 (stereo not shown) [Cyclophosphamide, cyclophosphamide monohydrate]
DEL (fold increase) ([2]; 50 μM final in well): 0.77 fold
DEL significance ([2]; 50 μM final in well): ns (ns—not significant (p > 0.05))
DEL (fold increase) ([2]; 100 μM final in well): 0.74 fold
DEL significance ([2]; 100 μM final in well): ns (ns—not significant (p > 0.05))
Cytotoxicity significance ([2]; 200 μM final in well): ns (ns—not significant (p > 0.05))
DEL (fold increase) ([2]; 200 μM final in well): 0.95 fold
DEL significance ([2]; 200 μM final in well): ns (ns—not significant (p > 0.05))
DEL fold-increase ([2]; up to 200 μM): no DEL fold-increase
viability at 50 μM [1]: 109%
viability at 100 μM [1]: 104%
viability at 200 μM [1]: 96.2%

C[S+](C)[O-] [DMSO, dimethyl sulfoxide]
DEL (fold increase) ([2]; 1% (solvent tested alone)): 0.96 fold
DEL significance ([2]; 1% (solvent tested alone)): ns (ns—not significant (p > 0.05))
DNA deletion potential (DEL events) of solvent alone [2]: neither solvents generated any differentiable response

CCOS(C)(=O)=O [EMS, ethyl methanesulfonate]
Cytotoxicity significance ([2]; 2 μg/ml final in well): *** (*** (p < 0.005))
DEL (fold increase) ([2]; 2 μg/ml final in well): 1.59 fold
DEL significance ([2]; 2 μg/ml final in well): *** (*** (p < 0.005))
Cytotoxicity significance ([2]; 5 μg/ml final in well): *** (*** (p < 0.005))
DEL (fold increase) ([2]; 5 μg/ml final in well): 3.19 fold
DEL significance ([2]; 5 μg/ml final in well): *** (*** (p < 0.005))
Cytotoxicity significance ([2]; 10 μg/ml final in well): *** (*** (p < 0.005))
DEL (fold increase) ([2]; 10 μg/ml final in well): 2.65 fold
DEL significance ([2]; 10 μg/ml final in well): *** (*** (p < 0.005))
growth in +13 media (cytotoxicity) ([2]; 2, 5 and 10 μg/ml): diminished growth in +13 media
growth in −HIS media (genotoxicity) ([2]; 2, 5 and 10 μg/ml): increased growth in −HIS media
viability at 2 μg/ml [1, 4]: 38.2%
viability at 5 μg/ml [1, 4]: 8.36%
viability at 10 μg/ml [1, 4]: 6.7%

COS(C)(=O)=O [MMS, methylmethane sulfonate]
Cytotoxicity significance ([2]; 10 nM final in well): *** (*** (p < 0.005))
DEL (fold increase) ([2]; 10 nM final in well): 1.54 fold
DEL significance ([2]; 10 nM final in well): ** (** (p < 0.01))
Cytotoxicity significance ([2]; 100 nM final in well): *** (*** (p < 0.005))
DEL (fold increase) ([2]; 100 nM final in well): 1.68 fold
DEL significance ([2]; 100 nM final in well): *** (*** (p < 0.005))
Cytotoxicity significance ([2]; 500 nM final in well): *** (*** (p < 0.005))
DEL (fold increase) ([2]; 500 nM final in well): 2.16 fold
DEL significance ([2]; 500 nM final in well): *** (*** (p < 0.005))
Cytotoxicity significance ([2]; 1000 nM final in well): *** (*** (p < 0.005))
DEL (fold increase) ([2]; 1000 nM final in well): 3.09 fold
DEL significance ([2]; 1000 nM final in well): *** (*** (p < 0.005))
cytotoxicity ([2]; each concentration between 10-1000 nM): increasingly significantly cytotoxic
DEL fold-increase ([2]; lowest dose tested of 10 nM (0.0011 μg/ml)): significant increase in DEL fold-increase
viability at 10 nM [1, 4]: 81.2%
viability at 100 nM [1, 4]: 74.8%
viability at 500 nM [1, 4]: 38.6%
viability at 1000 nM [1, 4]: 20.3%

CC(=O)N[C@@H](CS)C(=O)O [NAC, N-acetylamine]
protection against HNO induced DNA deletions [3]: protected
